Source: the NIST ThermoML archive (doi:10.1016/j.jct.2014.06.017)
Numbers after ± are expanded uncertainties.

Test: wn = mass fraction of the nth substance listed
Conditions: 100 kPa, Liquid, Concentric cylinders viscometry

OCCNCCO [diethanolamine] + O
viscosity [mPa·s]
Conditions | 298.2 K | 303.2 K | 313.2 K | 323.2 K
w1 = 0.2001 | 1.92 ± 0.19 | 1.67 ± 0.17 | 1.32 ± 0.13 | 1.05 ± 0.11
w1 = 0.25 | 2.61 ± 0.26 | 2.16 ± 0.22 | 1.67 ± 0.17 | 1.34 ± 0.13
w1 = 0.3001 | 3.26 ± 0.33 | 2.57 ± 0.26 | 1.99 ± 0.2 | 1.41 ± 0.14

CN(CCO)CCO [N-methyldiethanolamine] + O
viscosity [mPa·s]
Conditions | 298.2 K | 303.2 K | 313.2 K | 323.2 K
w1 = 0.3502 | 4.07 ± 0.41 | 3.36 ± 0.34 | 2.56 ± 0.26 | 2.02 ± 0.2
w1 = 0.4001 | 5.2 ± 0.52 | 4.41 ± 0.44 | 3.02 ± 0.3 | 2.65 ± 0.27
w1 = 0.45 | 7.62 ± 0.77 | 6.1 ± 0.61 | 4.37 ± 0.44 | 3.63 ± 0.36

NCCO [2-aminoethan-1-ol] + O
viscosity [mPa·s]
Conditions | 298.2 K | 303.2 K | 313.2 K | 323.2 K
w1 = 0.2 | 1.72 ± 0.17 | 1.53 ± 0.15 | 1.18 ± 0.12 | 0.98 ± 0.1
w1 = 0.2499 | 2.02 ± 0.2 | 1.79 ± 0.18 | 1.32 ± 0.13 | 1.12 ± 0.11
w1 = 0.3001 | 2.32 ± 0.23 | 2.13 ± 0.21 | 1.59 ± 0.16 | 1.31 ± 0.13
